Values of other authors, collected in patent US11717549B2, “Steviol glycoside solubility enhancers” (CARGILL, INCORPORATED, priority 2017, dated 2023).

Conditions: temperature 0 ° C.; cited from earlier work

Compound | solubility (ppm)
O=C(O)C(=O)c1ccccc1 [alpha-oxobenzeneacetic acid] | 4.79E+05

Same assay, conditions: temperature 9 ° C.; cited from earlier work

Compound | solubility (ppm)
O=C(O)[C@]1(O)C[C@@H](O)[C@@H](O)[C@H](O)C1 [quinic acid (coffee beans), quinic acid] | 2.25E+05

Same assay, conditions: temperature 13.5 ° C.; cited from earlier work

Compound | solubility (ppm)
CC(C)(C(=O)O)C(C)(C)C(=O)O [tetramethylbutanedioic acid] | 4.78E+03

Same assay, conditions: temperature 14 ° C.; cited from earlier work

Compound | solubility (ppm)
O=C(O)c1ccc(O)c(O)c1 [3,4-dihydroxybenzoic acid] | 1.79E+04
O=C(O)c1cccc(Cl)c1C(=O)O [3-chlorophthalic acid] | 2.08E+04
CCOc1ccc(NC(=O)C(O)C(O)C(=O)O)cc1 (stereo not shown) [ethonyphenyl tartramic acid] | 3.97E+03

Same assay, conditions: temperature 15 ° C.; cited from earlier work

Compound | solubility (ppm)
O=C(O)c1cc2c(cc1C(=O)O)OCO2 [hydrastic acid] | 5.96E+03
O=C(O)C(=O)c1ccccc1C(=O)O [phthalonic acid] | 3.49E+05

Same assay, conditions: temperature 16 ° C.; cited from earlier work

Compound | solubility (ppm)
O=C(O)c1cc(C(=O)O)cc(C(=O)O)c1 [1,3,5-benzenetricarboxylic acid] | 3.79E+03
O=C(O)c1cc(C(=O)O)c(C(=O)O)cc1C(=O)O [pyromellitic acid] | 1.40E+04

Same assay, conditions: temperature 18 ° C.; cited from earlier work

Compound | solubility (ppm)
O=C1c2cccc(S(=O)O)c2C(=O)c2c1cccc2S(=O)O [1,8-anthraquinonedisulfinic acid] | 2.86E+05
1,5-anthraquinone disulfonic acid anilide | 3.97E+03
1,7-chloroanthraquinone sulfonic acid | 1.67E+05
O=C1c2cc(S(=O)(=O)O)ccc2C(=O)c2c(Cl)cccc21 [1,6-chloroanthraquinone sulfonic acid] | 1.67E+05

Same assay, conditions: temperature 20 ° C.; cited from earlier work

Compound | solubility (ppm)
O=C(O)C(CO)c1ccccc1 (stereo not drawn) [alpha-(hydroxymethyl)benezeneacetic acid] | 1.91E+04
Cc1ccc(N)cc1S(=O)(=O)O [4-amino-o-toluenesulfonic acid] | 4.48E+03
O=C(O)C(O)c1ccccc1 (racemic) [alpha-hydroxybenzeneacetic acid, (±)] | 1.21E+05
CC(C)C1C(=O)NC(=O)NC1=O [isopropylbarbituric acid] | 5.89E+03
C=CCC1(CC)C(=O)NC(=O)N(CCCC)C1=O (stereo not shown) [5-allyl-5-ethylbutylbarbituric acid] | 3.99E+03
O=C(O)CCc1ccccc1 [benzenepropanoic acid] | 5.87E+03
Cc1cc(S(=O)(=O)O)ccc1N [4-amino-3-methylbenzene sulfonic acid] | 4.98E+03
CCNC(=O)[C@@H](C)OC(=O)Nc1ccccc1 [D-(−)-carbanilic acid (1-ethylcarbamoyl)ethyl ester] | 3.49E+03
Nc1ccccc1C(=O)O [aniline-2-carboxylic acid] | 3.48E+03

Same assay, conditions: temperature 21 ° C.; cited from earlier work

Compound | solubility (ppm)
CC(=O)Oc1ccccc1C(=O)OC[S+](C)[O-] (stereo not shown) [2-(acetoxy)-benzoic acid, (methylsulfinyl)methyl ester] | 4.21E+03
CCNC(=O)COC(=O)c1ccccc1OC(C)=O [benzoic acid, 2-(acetyloxy)-, 2-(ethylamino)-2-oxoethyl ester] | 5.49E+03
O=C(O)CCCCCCCCCC(=O)O [undecanedioic acid] | 5.07E+03

Same assay, conditions: temperature 25 ° C.; cited from earlier work

Compound | solubility (ppm)
CC(C)CC=CCC(=O)O [6-methyl-3-heptenoic acid] | 4.64E+03
CC(C)CCCC(=O)O [5-methylhexanoic acid] | 3.93E+03
CCCC(C)=CCC(=O)O [4-methyl-3-heptenoic acid] | 4.64E+03
CCCOC(=O)OC(C)C(=O)OC (stereo not shown) [propanoic acid, 2-[(propoxycarbonyl)oxy]-, methyl ester] | 5.15E+03
O=C(O)c1cccc([N+](=O)[O-])c1C(=O)O [3-nitrophthalic acid] | 1.97E+04
CCC(=O)O[C@@H](C(=O)O)c1ccccc1 [propionyl-r-mandelic acid] | 5.15E+03
CCCC(=CC(=O)O)CC [3-ethyl-2-hexenoic acid] | 6.06E+03
CCC(C)C=CCC(=O)O (stereo not shown) [5-methyl-3-heptenoic acid] | 4.64E+03
CCC(C=CC(=O)O)CC [4-ethyl-2-hexenoic acid] | 6.06E+03
O=C(O)c1ccc([N+](=O)[O-])cc1[N+](=O)[O-] [2,4-dinitrobenzoic acid] | 1.79E+04
CCCC1(CC)C(=O)NC(=O)NC1=O [5-ethyl-5-n-propylbarbituric acid] | 5.66E+03
CCCC/C=C/C(=O)O [trans-2-heptenoic acid] | 5.37E+03
CC1(C)[C@@H](C(=O)O)CC[C@@]1(C)C(=O)O (relative stereo) [cis-1,2,2-trimethyl-1,3-cyclopentanedicarboxylic acid, (1R)] | 7.54E+03
CCCCCCCCC(C(=O)O)C(=O)O [octylpropanedioic acid] | 5.53E+03
O=C(O)c1cc(=O)cc(C(=O)O)o1 [4-oxo-4H-pyran-2,6-dicarboxylic acid] | 1.41E+04
C=CCCCCC(=O)O [6-heptenoic acid] | 5.55E+03
CCCCC=C(C)C(=O)O [2-methyl-2-heptenoic acid] | 4.64E+03
CC(=O)O[C@@H](C(=O)O)c1ccccc1 [acetyl-r-mandelic acid] | 1.11E+04
CC(C)(CCCC(C)(C)C(=O)O)C(=O)O [a,a,a′,a′-tetramethylheptanedioic acid] | 7.55E+03
O=C(O)c1ccccc1C(F)(F)F [2-(trifluoromethyl)benzoic acid] | 4.78E+03
CCCC=C(C)CC(=O)O [3-methyl-3-heptenoic acid] | 4.64E+03
CC(C)(C)C(CCC(=O)O)CC(=O)O (stereo not shown) [3-tert-butyl adipic acid] | 6.14E+03
CCCC(C)CC(=O)O (stereo not shown) [3-methylhexanoic acid] | 4.80E+03
O=C(O)c1ccccc1[N+](=O)[O-] [o-nitrobenzoic acid] | 7.44E+03

Compound | solubility (ppm)
COc1c(Cl)ccc(Cl)c1C(=O)O [3,6-dichloro-2-methoxybenzoic acid] | 4.48E+03
CCC=CC(C)CC(=O)O (stereo not shown) [3-methyl-4-heptenoic acid] | 4.64E+03
O=C(O)c1cccc(Br)c1[N+](=O)[O-] [3-bromo-2-nitrobenzoic acid] | 7.36E+03
C=CCC1(CC)C(=O)NC(=O)NC1=O [5-allyl-5-ethylbarbituric acid] | 4.75E+03
CCC(C)CC=CC(=O)O (stereo not shown) [5-methyl-2-heptenoic acid] | 4.64E+03
CC=CCCCC(=O)O [5-heptenoic acid] | 6.79E+03
CCCC=CC(C)C(=O)O (stereo not shown) [2-methyl-3-heptenoic acid] | 4.64E+03
O=C(O)c1ccccc1F [2-fluorobenzoic acid] | 7.15E+03
O=C(O)C(=O)Nc1ccccc1 [oxanilic acid] | 8.17E+03
COc1ccccc1C(=O)O [2-methoxybenzoic acid] | 4.18E+03
O=C(O)c1ccc([N+](=O)[O-])c([N+](=O)[O-])c1 [3,4-dinitrobenzoic acid] | 6.66E+03
O=C(O)c1ccc(O)cc1 [p-hydroxybenzoic acid] | 6.36E+03
Nc1ccc(C(=O)O)cc1 [aniline-4-carboxylic acid] | 4.98E+03
CCC(C)(CC)C(=O)O [2-ethyl-2-methylbutanoic acid] | 9.69E+03
CCC(C)=CCCC(=O)O [5-methyl-4-heptenoic acid] | 4.64E+03
O=C(O)[C@@H](O)c1ccccc1 [alpha-hydroxybenzeneacetic acid, (S)] | 9.26E+04
CC(=O)Oc1ccccc1C(=O)O [2-(acetyloxy)benzoic acid] | 4.58E+03
O=C(O)c1cccc([N+](=O)[O-])c1 [m-nitrobenzoic acid] | 3.53E+03
O=C(O)C(O)c1ccccc1 (stereo not shown) [mandelic acid (almonds), mandelic acid] | 1.53E+05
O=C(O[C@@H](C(=O)O)c1ccccc1)c1ccccc1 [benzoyl-r-mandelic acid] | 7.78E+03
CCC(C)CC=CC(=O)O (stereo not shown) [5-ethyl-2-hexenoic acid] | 6.06E+03
CCC(C)CCC(=O)O (racemic) [4-methylhexanoic acid] | 3.56E+03
CCCCC(C)=CC(=O)O [3-methyl-2-heptenoic acid] | 4.64E+03

Same assay, conditions: temperature 100 ° C.; cited from earlier work

Compound | solubility (ppm)
O=C(O)c1cc(=O)c2ccccc2[nH]1 [4-hydroxy-2-quinolinecarboxylic acid] | 8.84E+03
Cc1ccc(C(=O)O)cc1O [3-hydroxy-4-methylbenzoic acid] | 4.17E+04
N[C@@H](CSCSC[C@H](N)C(=O)O)C(=O)O [djenkolic acid] | 4.98E+03
O=C(O)c1cccc(C(=O)O)c1O [2-hydroxyisophthalic acid] | 2.57E+04
Cc1ccc(O)c(C(=O)O)c1 [2-hydroxy-5-methylbenzoic acid] | 2.14E+04

Same assay, conditions: temperature not given; cited from earlier work

Compound | solubility (ppm)
O=C(O)c1c(Cl)cccc1Cl [2,6-dichlorobenzoic acid] | 1.39E+04
Nc1ccc2cc(S(=O)(=O)O)cc(O)c2c1 [6-amino-4-hydroxy-2-naphthalenesulfonic acid] | 4.48E+03
O=C(O)c1c(O)cccc1O [2,6-dihydroxybenzoic acid] | 9.47E+03
CCNCCOC(=O)c1ccc(N)cc1 [4-aminobenzoic aciD-2-(ethyl-amino)ethyl ester] | 5.59E+03
